Experimental findings from patent US11478486B2, “Association of actives for treating prostate cancer” (priority 2017, dated 2022) are described below.

Common to all, as to format: cell-based, human
For assay [1], the system named is AR-V7. The experiment in a line: CELIGO microscope observation of AR-V7 expression. The conditions noted are these: 22Rv1 cells, 72 hours; enzalutamide 30.0 μM, SB202190 5.0 μM, LY2228820 2.5 μM; control 30.0%. Here is the method:
The expression of AR-V7 was observed by the CELIGO microscope in 22Rv1 cells after 72 hours of culture.

The subject of assay [2] is AR-V7. The experiment in a line: western blot of AR and AR-V7 expression in 22Rv1 cells. The following applies: 22Rv1, 72 hours; abiraterone 7.5 μM, enzalutamide 7.5 μM, SB202190 (504). Here is the method: Western blot analysis was performed, detecting the wild-type form of AR and the AR-V7 form as well (FIG. 7). In this way the inventors tested the involvement of the p38 inhibitor in abiraterone and enzalutamide resistance, the AR-V7.

In a further assay the test system is p38 (MAPK14). The experiment in a line: p38 activation, western blot with anti-phospho-p38 antibody. The conditions noted are these: 22Rv1 and LNCaP prostate cancer cells, 24 hours. As for the experimental part: FIG. 1: Abiraterone induces p38 activation. Prostate cancer cells LNCaP (Androgen Receptor expressing cells) were treated with abiraterone (30 μM). Prostate cancer cells 22Rv1 (Androgen Receptor and AR-V7 expressing cells) were treated with 0.1, 1.0, 10.0 and 30.0 μM abiraterone during 24 hours. Protein were extracted and subjected to western blot analysis using anti-phospho-p38, anti-p38 and anti-tubulin antibodies. (Example 1)
[…]. A: LNCaP human prostate cells (Androgen Receptor expressing cells) were treated by enzalutamide (35.0 μM) during 24 h00. Phosphorylation p38 was assessed. Tubuline and non-phosphorylated proteins were stained as a loading control. B: same experiment with the Androgen Receptor and AR-V7 expressing 22Rv1 human prostate cancer cells (Example 1).

On to `CC(C)(C)Cn1c(N)nc2ccc(-c3[nH]c(C(C)(C)C)nc3-c3ccc(F)cc3)nc21` [LY2228820], for which the “% of cells with ARv7” value in the assay with AR-V7 [1] is 34.0%.

Take `Oc1ccc(-c2nc(-c3ccncc3)c(-c3ccc(F)cc3)[nH]2)cc1` [SB202190]: the “% of cells with ARv7” value in the assay on AR-V7 [1] amounted to 28.0%. Moreover, the AR-V7 expression result with AR-V7 [2] is “inhibits AR-V7 expression”.

Regarding `CNC(=O)c1ccc(N2C(=S)N(c3ccc(C#N)c(C(F)(F)F)c3)C(=O)C2(C)C)cc1F` [enzalutamide], the “activation of MAPK p38 (phosphorylated form of p38)” value in the assay on p38 (MAPK14) was “activates the MAPK p38”.
